In paper PMC4671956, “Exploiting Transient Protein States for the Design of Small-Molecule Stabilizers of Mutant p53” (Structure(London, England:1993), 2015):

Key:
[1] = target: T1, p53 Y220C mutant (Homo sapiens, UniProt P04637, M133L/N239Y/N268D/V203A/Y220C); design: method as in Boeckler et al., 2008; conditions: ref Boeckler et al., 2008; cited from earlier work
[2] = target: T1, p53 Y220C mutant; design: method as in Boeckler et al., 2008; conditions: ref Boeckler et al., 2008; cited from earlier work; remark: listed apart in the source
[3] = target: T1, p53 Y220C mutant; experiment: Dissociation constant by nuclear magnetic resonance spectroscopy (NMR); format: binding
Protocol: (§1) Dissociation constants for the binding of ligands to the p53 Y220C mutant were determined by either nuclear magnetic resonance spectroscopy or isothermal calorimetry as described by [Wilcken et al. (2012a)].

[4] = target: T1, p53 Y220C mutant; experiment: Dissociation constant by isothermal calorimetry (ITC); format: binding
Protocol: as §1

[5] = test system: cancer cell lines expressing the Y220C mutant; design: method as in Liu et al., 2013; conditions: ref Liu et al., 2013; cited from earlier work
[6] = NMR, p53-Y220C ligand complex, read-out: KD

For `CCn1c2ccccc2c2cc(CNC)ccc21` [Compound 1, PhiKan083], the “effect on melting temperature of the protein” value [1] is given as “raises the melting temperature of the protein” and the “effect on rate of aggregation” value [2] is given as “slows down its rate of aggregation”.
Work on `CCc1cccc2c(C3CCNCC3)c[nH]c12` [Compound 2] yielded a Kd [3, 6] of 470 ± 90 µM.
For `O=C(O)c1cc(I)cc(I)c1O` [Compound 4], the “ligand efficiency [LE]” value ([3]; from KD = 820 μM (NMR)) was 0.35 kcal/mol per non-hydrogen atom.
`CCc1cc(Br)cc2c(CCN)c(C)[nH]c12` [Compound 6] showed a Kd [3] of 940 ± 110 µM.
`CN(C)CCn1cc(-c2ccc(F)cc2)c(-n2cccc2)n1` [Compound 7, PhiKan7242] gave a Kd [3, 6] of 2400 µM.
In the case of `Nc1ccc(C(F)(F)F)cc1N` [Compound 8], the Kd [3, 6] is reported as over 10000 µM.
With `O=C(O)c1cc(I)c(-n2cccc2)c(I)c1O` [Compound 9] the Kd ([4]; ITC, p53-Y220C ligand complex) was 21 µM, the increase in affinity ([4]; compound 9 relative to scaffold 4 without pyrrole) was 40 fold and the “ligand efficiency [LE]” value ([4]; from KD = 21 μM (ITC)) was 0.38 kcal/mol per non-hydrogen atom.
Work on `c1ccn(-c2oc(C3CC3)nc2-c2nnn[nH]2)c1` [Compound 10] yielded a Kd [3, 6] of over 2000 µM.
`Nc1cc(C(F)(F)F)cc(Br)c1N` [Compound 11] showed a Kd [3, 6] of 4800 µM.
For `O=C(Nc1ccc(Cl)cc1O)C1CCNCC1` [Compound 12], the Kd [3, 6] was 1270 µM.
For `Cn1cc(-c2ccccc2)c(-n2cccc2)n1` [PhiKan7088], the “biological activity in cancer cell lines” value [5] is given as “biologically active”.
